From article PMC11765572 (International Journal of Molecular Sciences, 2025)

Test system: SARS-CoV-2 (BetaCov/Belgium/GHB-03021/2020 B.1 lineage A)

Structure (SMILES)	SI (Selection Index) = CC50/EC50
CNC(=O)c1cc(Br)cc([N+](=O)[O-])c1N[C@@H]1CCCC[C@@H]1NC(=O)c1cccnc1 [Compound A5, N-((1S,2R)-2-((4-bromo-2-(methylcarbamoyl)-6-nitrophenyl)amino)cyclohexyl)nicotinamide]	>49.7
CNC(=O)c1cc(Br)cc([N+](=O)[O-])c1N[C@@H]1CCCC[C@@H]1NC(=O)c1cncc(O)c1 [Compound A6, N-((1S,2R)-2-((4-bromo-2-(methylcarbamoyl)-6-nitrophenyl)amino)cyclohexyl)-5-hydroxynicotinamide]	>16.5
